In article PMC12709424, “Markovian state models uncover casein kinase 1 dynamics that govern circadian period” (Biophysical Journal, 2025):

Assays:
CK1 [1] = assay: 32P-ATP time course kinase assay, PER3 FASP-like peptides; format: biochemical, human; details: 32P-ATP time course, 200 μM peptide, 200 nM CK1 (unprimed), 750 μM ATP, 30°C, pH 7.5; four independent assays; Fig. S15E, F
Description: (§1) PER FASP region peptides were synthesized and purified to 95% or higher (SABio). Two independent reaction mixtures of 50 μL containing 200 μM of the FASP or in reaction buffer (25 mM Tris (pH 7.5), 7.5 mM MgCl2, 1 mM DTT, and 0.1 mg/mL BSA) were preincubated for 5 min with or without 20 nM CK1 (for primed FASP) or 200 nM CK1 (for unprimed FASP) and the reaction was started by addition of 750 μM of UltraPure ATP (Promega) containing 1–2 μCi of ɣ-^32p ATP (PerkinElmer). After incubation of the reaction mix at 30°C, an 8-μL aliquot of the reaction mix was transferred to P81 phosphocellulose paper (Reaction Biology Corp) at the indicated timepoints. […] The air-dried P81 paper was counted for Pi incorporation using a scintillation counter (PerkinElmer) by Cherenkov counting. […]
(§2) To map binding sites on the surface of CK1, we employed FTMap, a fast computational approach that uses small organic probes to identify consensus sites (or pockets) that are likely to bind drug -like molecules. We submitted a series of conformations representative of the most populated MSM states to the FTMap server (https://ftmap.bu.edu/) and analyzed the results with FTProd. […] Tables S7 and S8 describe the consensus sites (CS) detected for WT and tau conformations, respectively. When a site is detected (colorful cells), it contains a score based on (1 picture or pasted object on this page, not shown here)

CK1 D132A = assay: 32P-ATP time course kinase assay, CK1 D132A compared with WT; format: biochemical, human; details: 200 μM peptide, 30°C, pH 7.5, four independent assays
Description: as §1
as §2, with “(1 picture or pasted object on this page, not shown here)” left out

[2] = molecular target: Human CK1δ catalytic domain (CK1, residues 1–317), wild type (human) (UniProt P48730)
CK1 [3] = details: cited from earlier work
Excerpt: Here, we further tested our model by introducing a lysine at the −3 position and a glutamate at the −1 position of PER3 FASP-like peptides (A610K/L612E) to mimic the PER2 FASP priming region and rescue priming activity. These mutant peptides were used in a ^32P-ATP time course kinase assay ...

Chain of UniProt P48730 (P48730 other isoform, or with tags, fused parts or gaps mutant): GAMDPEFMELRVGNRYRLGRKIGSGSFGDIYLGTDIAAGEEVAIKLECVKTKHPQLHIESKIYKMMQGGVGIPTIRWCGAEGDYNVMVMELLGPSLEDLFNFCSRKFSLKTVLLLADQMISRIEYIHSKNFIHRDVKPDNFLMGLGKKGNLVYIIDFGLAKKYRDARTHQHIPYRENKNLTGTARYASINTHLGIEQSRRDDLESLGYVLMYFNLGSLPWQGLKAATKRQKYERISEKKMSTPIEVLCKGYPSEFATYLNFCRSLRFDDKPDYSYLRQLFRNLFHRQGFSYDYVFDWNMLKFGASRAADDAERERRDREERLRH

For “RKKKPSTDIEGGAAR TLSTKAESVAAGIAQ [A610K/L612E (priming only), PER3 KAE peptide with serine residues downstream of the priming site mutated to alanine]”, the “CK1 activity in presence of −3K and −1E (in words)” value (CK1 [1]) was “increase in CK1 activity”.

With “RKKKPSTDIEGGAART LSTKAESVASGISQ [A610K/L612E, PER3 FASP-like peptide with −3K and −1E (A610K/L612E)]” the “CK1 activity in presence of −3K and −1E (in words)” value (CK1 [1]) was “increase in CK1 activity”.

In the case of “RKKKTEVSAHLSSLTL PGKAEpSVVSLTSQ [primed FASP peptide, synthetic mouse PER2 FASP peptide, pS659 primed]”, the “activity of CK1 D132A compared with CK1 WT on primed FASP (in words)” value (CK1 D132A; 20 nM CK1, 750 μM ATP, Fig. S15C) is reported as “more modest effect”.

With “RKKKTEVSAHLSSLTLP GKAESVVSLTSQ [unprimed FASP peptide, synthetic mouse PER2 FASP peptide, unprimed]” the “activity of CK1 D132A compared with CK1 WT on unprimed FASP (in words)” value (CK1 D132A; 200 nM CK1, 750 μM ATP, Fig. S15B) was “dramatic loss in activity”.

Molecule “human PER2 FASP peptide, alanine at position −1 (E661) in the “priming only” (S665A) background” has a fold change of the apparent Michaelis-Menten constant (KMapp) against the WT “priming only” substrate, ADP-Glo substrate titration [2] of 10 fold.

Work on “human PER2 FASP peptide, alanine at position −3 (K659) in the “priming only” (S665A) background” yielded a fold change of the apparent Michaelis-Menten constant (KMapp) against the WT “priming only” substrate, ADP-Glo substrate titration [2] of 10 fold.

In the case of “human PER2 FASP peptide, “priming only” (S665A)”, the apparent Michaelis-Menten constant (KMapp) of CK1 priming activity, ADP-Glo substrate titration (200 nM CK1, 100 μM ATP, room temperature, 1 h) [2] is reported as 210 µM.

B1: PER3: PER homolog within the circadian system (protein, UniProt P56645 1-1201, looked up)
Period circadian protein …: MPRGEAPGPGRRGAKDEALGEESGERWSPEFHLQRKLADSSHSEQQDRNRVSEELIMVVQEMKKYFPSERRNKPSTLDALNYALRCVHSVQANSEFFQILSQNGAPQADVSMYSLEELATIASEHTSKNTDTFVAVFSFLSGRLVHISEQAALILNRKKDVLASSHFVDLLAPQDMRVFYAHTARAQLPFWNNWTQRAARYECAPVKPFFCRIRGGEDRKQEKCHSPFRIIPYLIHVHHPAQPELESEPCCLTVVEKIHSGYEAPRIPVNKRIFTTTHTPGCVFLEVDEKAVPLLGYLPQDLIGTSILSYLHPEDRSLMVAIHQKVLKYAGHPPFEHSPIRFCTQNGDYIILDSSWSSFVNPWSRKISFIIGRHKVRTSPLNEDVFATKIKKMNDNDKDITELQEQIYKLLLQPVHVSVSSGYGSLGSSGSQEQLVSIASSSEASGHRVEETKAEQMTLQQVYASVNKIKNLGQQLYIESMTKSSFKPVTGTRTEPNGGGECKTFTSFHQTLKNNSVYTEPCEDLRNDEHSPSYQQINCIDSVIRYLKSYNIPALKRKCISCTNTTSSSSEEDKQNHKADDVQALQAGLQIPAIPKSEMPTNGRSIDTGGGAPQILSTAMLSLGSGISQCGYSSTIVHVPPPETARDATLFCEPWTLNMQPAPLTSEEFKHVGLTAAVLSAHTQKEEQNYVDKFREKILSSPYSSYLQQESRSKAKYSYFQGDSTSKQTRSAGCRKGKHKRKKLPEPPDSSSSNTGSGPRRGAHQNAQPCCPSAASSPHTSSPTFPPAAMVPSQAPYLVPAFPLPAATSPGREYAAPGTAPEGLHGLPLSEGLQPYPAFPFPYLDTFMTVFLPDPPVCPLLSPSFLPCPFLGATASSAISPSMSSAMSPTLDPPPSVTSQRREEEKWEAQSEGHPFITSRSSSPLQLNLLQEEMPRPSESPDQMRRNTCPQTEYCVTGNNGSESSPATTGALSTGSPPRENPSHPTASALSTGSPPMKNPSHPTASALSTGSPPMKNPSHPTASTLSMGLPPSRTPSHPTATVLSTGSPPSESPSRTGSAASGSSDSSIYLTSSVYSSKISQNGQQSQDVQKKETFPNVAEEPIWRMIRQTPERILMTYQVPERVKEVVLKEDLEKLESMRQQQPQFSHGQKEELAKVYNWIQSQTVTQEIDIQACVTCENEDSADGAATSCGQVLVEDSC
In the case of B1, the “CK1 substrate status (in words)” value (CK1 [3]) is listed as “does not appear to be a substrate of the kinase”.
